Key:
Staphylococcus aureus = assay: Full thickness infected wound model, wound bacterial content; format: in vivo, rabbits
Description: FIG. 9 illustrates wound bacterial content following topical application of 200 ppm gNO in a full thickness infected wound model in rabbits.
In vivo studies in animal models have further shown the beneficial effects of nitric oxide gas. In an animal model, full-thickness cutaneous wounds (Set A: four rabbits with eight 8.0 mm punch biopsies & Set B: 4 rabbits with two 50×15 mm wounds) were made on each side of dorsal midline and infected with equal volume of Staphylococcus aureus suspension on day zero. On day one, treated groups in A and B were respectively exposed to 200 and 400 ppm gNO for total of three days. […] A 24-hour continuous delivery model was used for animals in Set B by design of a specialized wound patch. Control groups were only exposed to medical grade air with corresponding flow rate. Four random sample punch biopsies (8.0 mm) were collected on post wounding days 3 and analyzed for bacterial content. Another four punch biopsies from both wound and normal skin tissue were collected for fibroblast viability analysis and toxic effects of gNO.
On average well over 10 fold drop (p<0.05) in bacterial content is observed in comparison between control and treated groups.

[1] = test system: all microorganisms tested; assay: Bacteriocidal time study, 200 ppm gNO, saline suspension, all organisms together; format: cell-based
Experimental: Following the dose and time ranging studies, a series of experiments were performed to determine the time required to effectively induce a bacteriocidal effect with 200 parts per million of gNO, a concentration just above the dose used in the dose-ranging study, on a representative collection of drug resistant gram-positive and gram-negative strains of bacteria associated with clinical infection. A successful bacteriocidal effect was defined as a decrease in bacteria greater than 3 log10 cfu/ml. Further, C. albicans, Methicillin Resistant S. aureus (MRSA), a particularly resistant strain of P. aeruginosa from a cystic fibrosis patient, Group B Streptococcus, and M. smegmatis were also included to see if yeast, multi-drug resistant strains of bacteria, and actinomycetes have a similar response. The drug-resistant bacteria represent a variety of pathogens that contribute to both respiratory and wound infections.
For these experiments, saline was selected as a suspension media because it would not mask the direct effect of gNO as a bacteriocidal, whereas fully supplemented growth medium might introduce external variables (e.g., buffer or react with gNO). Other media might also provide metabolites and replenish nutrients that produce enzymes that protect bacteria from oxidative and nitrosative damage, thereby masking the effect of gNO. […] In saline, the colonies were static but remained viable. This is similar to the approach of Webert and Jean's use of animal models. Webert K E, et al (2000), Effects of inhaled nitric oxide in a rat model of Pseudomonas aeruginosa pneumonia, Crit. Care Med, 28(7):2397-2405 and Jean D, et al., (2002) Beneficial effects of nitric oxide inhalation on pulmonary bacterial clearance, Critical Care Medicine. 30(2):442-7.
The latent period was then followed by an abrupt death of all cells. Gram negative and gram positive bacteria, antibiotic resistant bacterial strains, yeast and mycobacteria were all susceptible to 200 ppm gNO. Of importance, is the observation that the two drug resistant bacteria strains were also susceptible.

[2] = test system: non-healing venous leg ulcer; assay: Human case study, non-healing venous leg ulcer, topical gNO; format: in vivo
Description: This case study involved a person with a 30 year history of severe venous disease, both deep and superficial, related to deep vein thrombophlebitis. Initially, while, the patient developed bilateral non-healing venous leg ulcers that were surgically treated. The surgical sites healed but the ulcers continued to recur. Initially, the patient presented with a small ulcer located just below the medial malleolus of the left ankle.
Arrangements were made to meet at the patient's home the following day to set up the equipment and for them to have a repeat training on the use of the treatment system. Training included use of the system as well as safety information on using the gas equipment.
Nitric oxide gas (ViaNOx-H, VIASYS Healthcare, Yorba Linda, Calif., USA) was applied to the lower extremity with use of a gas-diluting delivery system (CidaNOx Delivery System) designed specifically for the study (PulmoNOx Medical Inc., Edmonton, Alberta, Canada). This CidaNOx delivery system contains an internal air pump for dilution of the gNO and a flow control circuit to dilute the 800 parts per million (ppm) in the NO source cylinder down to the therapeutic level of 200 ppm. The total flow from the system was 1.0 L/min and included one-quarter of a liter per minute (250 ml/min) flow of gNO. Several internal pressure sensors assure the dilution flow is operational and monitor the system. The flow of nitric oxide was limited to 250 ml/min by a mechanically set pressure regulator and a mechanical flowmeter that have no external controls that could be changed by the patient. The concentration of nitric oxide delivered was assured by measurement of the CidaNOx output with a calibrated nitric oxide analyzer (AeroNOx, Pulmonox Medical Inc.) that is approved for monitoring inhaled NO in human patients.
The 200 ppm gNO from the CidaNOx Delivery System flowed out to a single patient use plastic boot that covered the patient's lower extremity. […] A secondary air outlet from the CidaNOx unit managed the inflation of the cuff. The patient connected the pump outlet to the cuff connector until it was inflated and then the connector was sealed closed with the provided clamp. […]
To explore the potential for wound bed preparation and accelerated wound healing from prolonged use, treatment regimen beyond three days was chosen and which was stopped at 14 days to evaluate the short-term effects and explore the possibility that the short-term effects would improve the longer-term outcome. […] The patient recorded the date, time, and duration of each treatment period on a data sheet, and any significant observations related to the wound, treatment, or equipment. The wound size (cm^2) was measured using digital photography and densitometry technique (Scion Image −4.02, Scion Corp., Frederick Md., USA). […]

collagenase mRNA = assay: mRNA expression after gNO exposure; format: cell-based; settings: 200 ppm gNO; 24 hours and 48 hours
Description: Witte M B, et al, (2002) Nitric oxide enhances […] wound healing in diabetes, Br J. Surg., 89:1594-601. Thus, Applicants believe that NO may upregulate expression of both collagenase (MMP-1) and gelatinase (MMP-2), which may be important in keeping the wound clean from necrotic tissue while not prolonging the inflammatory phase.

[3] = average of the 13 bacteria listed above it, without Mycobacterium

[N]=O [gNO, nitric oxide]
wound bacterial content (Staphylococcus aureus; 200 ppm gNO continuously for 72 hours, compared with medical air control): significant bacterial reduction
drop in wound bacterial content (Staphylococcus aureus; 400 ppm gNO, control versus treated, p<0.05): over 10 fold
bacteriocidal effect [1]: completely bacteriocidal effect
LD100, Average [1, 3]: 4.77 h
Latent Period*, Average [1, 3]: 2.77 h
−2.5 Log10, Average [1, 3]: 3.82 hrs
reduction in cfu/ml ([1]; every bacteria challenged): at least a three log10 reduction
ulcer status ([2]; 26 weeks post NO discontinuation): completely healed and reepithelialized
wound size, day 3 ([2]; 200 ppm gNO nightly, day 3, 24 hours cumulative exposure, p=0.014): Significant wound size reduction
reduction in wound area ([2]; 200 ppm gNO nightly, end of therapy at day 14): approximately 75%
wound healed ([2]; six weeks after the end of 14-day 200 ppm gNO treatment): about 90%
expression of collagenase mRNA (collagenase mRNA): increased
